Where two headings read alike, the source gives them in different places.
Columns and labels:
[1] = tested on: mouse peritoneal macrophages; assay: Suppression of foaming of macrophages (cholesterol ester synthesis) in vitro; format: cell-based, mouse (female ICR); conditions: 5 μM, 16 hours, relative to control as 100%, smaller value = more potent suppression; for activity at 5 µM: Mus musculus, Peritoneal macrophage, read-out: Rate of CE synthesis (%)
Description: Activity of the compounds of the present invention for suppressing the foaming of macrophages
(§1) Activity of the compounds of the present invention for suppressing the foaming of macrophages, which triggers arterial sclerosis, was examined by an in vitro experiment using mouse peritoneal macrophages. 15-Week old female ICR mice (Nippon SLC) were subjected to bleeding by cutting off their cervicalis, and Hanks buffer (Nippon Seiyaku) was injected into their peritoneal cavities. After abdominal regions of the mice were massaged, the buffer was recovered immediately, and then the resulting buffer was centrifuged at 1,000 r.p.m. for five minutes to collect peritoneal macrophages. Then, the collected macrophages were suspended in GTI medium (Wako Pure Chemical Industries), and inoculated onto a 24-well microtiter plate. After the macrophages were cultivated at 37° C. under 5% CO2 for two hours, the culture medium was changed with Dulbecco Modified Eagle Medium (MEM, Nippon Seiyaku). The macrophages were further cultivated at 37° C. under 5% CO2 for 16 hours, and then a test compound and liposomes were added to the culture.
1) Test compound: dissolved in DMSO (Wako Pure Chemical Industries),
PC: Phosphatidylcholine (Funakoshi);
PS: Phosphatidylserine (Funakoshi);
DCP: Dicetylphosphate (Funakoshi);
CHOL: Cholesterol (Sigma)
(§2) After cultivation was further continued at 37° C. under 5% CO2 for 16 hours, lipid fraction was extracted with chloroform and methanol. The extracted lipid fraction was dissolved in isopropyl alcohol, and the produced cholesterol ester (CE) was quantified by an enzymatic luminescence method. Yield of the cholesterol ester was calculated as a relative ratio based on yield of the control as 100% where no test compound was added. Cytotoxicity was examined microscopically by observing morphological alteration of cells. In the tables, compound numbers correspond to those of the compounds of present invention described in the examples.

[2] = tested on: mouse peritoneal macrophages; assay: Cytotoxicity examined microscopically (morphological alteration of cells); format: cell-based, mouse (female ICR); conditions: 5 μM, observed microscopically
Description: as §1, §2

| Structure (SMILES) | activity at 5 µM ([1]; Table 3) | Cytotoxicity ([2]; Table 3) | activity at 5 µM ([1]; Table 4) | Cytotoxicity ([2]; Table 4) | Rate of CE synthesis (%) ([1]; Table 4) |
| --- | --- | --- | --- | --- | --- |
| Clc1cc2nc(SCCCCCCCCSc3nc4ccccc4[nH]3)[nH]c2cc1Cl [Compound A13, 1-(2'-(5',6'-dichlorobenzimidazolyl)thio)-8-(2"-benzimidazolylthio)octane] | 58% | Not observed |  |  |  |
| Cc1ccc2[nH]c(SCCOCCOCCSc3nc4ccccc4[nH]3)nc2c1 [Compound A22] | 20% | Not observed |  |  |  |
| Cc1cc2nc(CCCCCSc3nc4ccccc4[nH]3)[nH]c2cc1C [Compound A28, 2-(5-(2'-benzimidazolylthio)pentyl)-5,6-dimethylbenzimidazole] | 49% | Not observed |  |  |  |
| CSc1nnc(SCCCCCSc2nc3ccccc3[nH]2)s1 [Compound B19] |  |  | 21% | Not observed |  |
| Oc1ncnc2[nH]c(SCCCCCSc3nc4ccccc4[nH]3)nc12 [Compound B14] |  |  | 48% | Not observed |  |
| CCC(=O)n1c(CCCCCSc2nc3ccccc3n2C(=O)CC)nc2ccccc21 [Compound A24, 1-propionyl-2-(5-(2'-(1-propionylbenzimidazolyl)thio)pentyl)benzimidazole] | 40% | Not observed |  |  |  |
| Cc1ccc2[nH]c(SCCCCCSc3nc4cc(Cl)ccc4[nH]3)nc2c1 [Compound A3, 1-(2-(5'-chlorobenzimidazolyl)thio)-5-(2"-(5"-methylbenzimidazolyl)thio)pentane] | 36% | Not observed |  |  |  |
| Cc1cc2nc(CCCCCSc3ccccn3)[nH]c2cc1C [Compound B45] |  |  | 48% | Not observed |  |
| FC(F)(F)c1ccc2c(SCCCCCSc3nc4ccccc4[nH]3)ccnc2c1 [Compound B63] |  |  | 15% | Not observed |  |
| CCC(=O)n1c(SCCCCCSc2nc3cc(S(=O)(=O)NC)ccc3n2C)nc2ccccc21 [Compound A25] | 32% | Not observed |  |  |  |
| CCOC(=O)c1ccc2[nH]c(SCCCCCSc3ccccn3)nc2c1 [Compound B36] |  |  | 26% | Not observed |  |
| c1ccc2[nH]c(SCCCCCSC3=NCCCN3)nc2c1 [Compound B54] |  |  | 24% | Not observed |  |
| Cn1ccnc1SCCCCCSc1nc2ccccc2[nH]1 [Compound B2] |  |  | 16% | Not observed |  |
| c1ccc(-c2cnc(SCCCCCSc3nc4ccccc4[nH]3)n2-c2ccccc2)cc1 [Compound B4] |  |  | 47% | Not observed |  |
| c1ccc(SCCCCCCCCCCCc2nc3ccccc3[nH]2)nc1 [Compound B48] |  |  | 41% | Not observed |  |
| CN(C)CCSc1nnc(SCCCCCSc2nc3ccccc3[nH]2)s1 [Compound B20] |  |  | 24% | Not observed |  |
| Clc1ccc2sc(SCCCCCSc3nc4ccccc4[nH]3)nc2c1 [Compound A34, 1-(2'-benzimidazolylthio)-5-(2"-(5"-chlorobenzothiazolyl)thio)pentane] | 28% | Not observed |  |  |  |
| Cc1ccc2[nH]c(SCCCCCSc3nc4ccccc4[nH]3)nc2c1 [Compound A1, 1-(2'-(5'-methylbenzimidazolyl)thio)-5-(2"-benzimidazolylthio)pentane] | 41% | Not observed |  |  |  |
| c1ccc2[nH]c(SCCCCCSc3nc4ccccc4o3)nc2c1 [Compound A37, 1-(2'-benzimidazolylthio)-5-(2"-benzoxazolylthio)pentane] | 13% | Not observed |  |  |  |
| CCC(=O)n1c(SCCCCCSc2ccccn2)nc2ccccc21 [Compound B65, 5-(2'-(1'-propionylbenzimidazolyl)thio)-1-(2"-pyridylthio)pentane] |  |  | 22% | Not observed |  |
| CN(C)C(=O)c1ccc2[nH]c(SCCCCCSc3ccccn3)nc2c1 [Compound B39] |  |  | 28% | Not observed |  |
| Oc1ccnc(SCCCCCSc2nc3ccccc3[nH]2)c1 [Compound B53] |  |  | 52% | Not observed |  |
| CNS(=O)(=O)c1ccc2c(c1)nc(SCCCCCSc1ccccn1)n2C [Compound B66] |  |  | 52% | Not observed |  |

| Structure (SMILES) | activity at 5 µM ([1]; Table 3) | Cytotoxicity ([2]; Table 3) | activity at 5 µM ([1]; Table 4) | Cytotoxicity ([2]; Table 4) | Rate of CE synthesis (%) ([1]; Table 4) |
| --- | --- | --- | --- | --- | --- |
| c1ccc2[nH]c(SCCCCCSc3nnc[nH]3)nc2c1 [Compound B5] |  |  | 14% | Not observed |  |
| Cc1ccc2[nH]c(SCCCCCSc3nc4cc(Cl)c(Cl)cc4[nH]3)nc2c1 [Compound A14, 1-(2'-(5',6'-dichlorobenzimidazolyl)thio)-5-(2"-(5"-methylbenzimidazolyl)thio)pentane] | 42% | Not observed |  |  |  |
| c1ccc(CCCCCSc2nc3ccccc3[nH]2)nc1 [Compound B43, 1-(2'-benzimidazolylthio)-5-(2"-pyridyl)pentane] |  |  |  | Not observed | 12% |
| c1ccc2[nH]c(SCCCCCSc3nc4ccccc4s3)nc2c1 [Compound A33, 1-(2'-benzimidazolylthio)-5-(2"-benzothiazolylthio)pentane] | 13% | Not observed |  |  |  |
| Cn1cnnc1SCCCCCSc1nc2ccccc2[nH]1 [Compound B6] |  |  | 22% | Not observed |  |
| FC(F)(F)c1cc2[nH]c(SCCCCCSc3nc4ccccc4[nH]3)nc2cc1Cl [Compound A16, 1-(2'-(5'-chloro-6'-trifluoromethylbenzimidazolyl)thio)-5-(2"-benzimidazolylthio)pentane] | 34% | Not observed |  |  |  |
| CC1=CC(C)(C)NC(SCCCCCSc2nc3ccccc3[nH]2)=N1 [Compound B55] |  |  | 52% | Not observed |  |
| CS(=O)(=O)Nc1ccc2[nH]c(SCCCCCSc3ccccn3)nc2c1 [Compound B38] |  |  | 22% | Not observed |  |
| Cc1nnc(SCCCCCSc2nc3ccccc3[nH]2)o1 [Compound B25] |  |  | 41% | Not observed |  |
| Cc1cc(C)nc(SCCCCCSc2nc3ccccc3[nH]2)n1 [Compound B51] |  |  | 24% | Not observed |  |
| Cc1ccc2[nH]c(SCCCCCSc3ccccn3)nc2c1 [Compound B35] |  |  | 46% | Not observed |  |
| Cc1cc2nc(SCCCCCSc3nc4ccccc4[nH]3)[nH]c2cc1C [Compound A10, 1-(2'-(5',6'-dimethylbenzimidazolyl)thio)-5-(2"-benzimidazolylthio)pentane] | 20% | Not observed |  |  |  |
| c1ccc(SCCCCCCCCSc2nc3ccccc3[nH]2)nc1 [Compound B32] |  |  | 37% | Not observed |  |
| O=[N+]([O-])c1ccc2[nH]c(CCCCCSc3ccccn3)nc2c1 [Compound B46] |  |  | 36% | Not observed |  |
| Oc1cc(SCCCCCSc2nc3cc(Cl)c(Cl)cc3[nH]2)nc2ccccc12 [Compound B58] |  |  | 18% | Not observed |  |
| CCC(=O)Nc1ccc2[nH]c(SCCCCCSc3ccccn3)nc2c1 [Compound B37] |  |  | 20% | Not observed |  |
| Clc1cc2nc(SCCCCCCSc3nc4ccccc4[nH]3)[nH]c2cc1Cl [Compound A12, 1-(2'-(5',6'-dichlorobenzimidazolyl)thio)-6-(2"-benzimidazolylthio)hexane] | 42% | Not observed |  |  |  |
| c1ccc(-c2noc(SCCCCCSc3nc4ccccc4[nH]3)n2)cc1 [Compound B27] |  |  | 15% | Not observed |  |
| O=[N+]([O-])c1ccnc(SCCCCCSc2nc3ccccc3[nH]2)c1 [Compound B42] |  |  | 12% | Not observed |  |
| c1ccc(SCCCCCCCc2nc3ccccc3[nH]2)nc1 [Compound B47] |  |  | 23% | Not observed |  |
| CCOC(=O)c1ccc2[nH]c(SCCCCCSc3nc4ccccc4[nH]3)nc2c1 [Compound A9, 1-(2'-(5'-ethoxycarbonylbenzimidazolyl)thio)-5-(2"-benzimidazolylthio)pentane] | 28% | Not observed |  |  |  |
| c1ccc2[nH]c(SCCCCCSc3ncnc4cn[nH]c34)nc2c1 [Compound B60] |  |  | 14% | Not observed |  |

From patent US6174907A, “Benzimidazole compounds containing 1,2,4-triazole ring, and compositions and methods of use containing the same” (Fuji Photo Film Co., Ltd., priority 1995, dated 2001)
